{"source": "patent US20110072525A1", "about": "“COMPOSITIONS AND METHODS FOR THE TREATMENT OF PSYCHIATRIC AND NEUROLOGICAL DISORDERS” (priority 2009, published 2011)", "test_system": "wild type C57BL6 mice", "assay": "Prepulse inhibition (PPI) of the acoustic startle response, control experiment", "type": "in vivo", "conditions": "wild type C57BL6 mice injected with MK-801 1 mg/kg; same PPI protocol; data not shown", "method": "Prepulse inhibition (PPI) of the acoustic startle response. Prepulse inhibition (PPI) of the acoustic startle response was measured as described previously with some minor modifications (E. S. Emamian et al., 2004b). Adult homozygous mutant mice and their wild-type littermates were housed individually for 2 weeks prior to testing. Testing was conducted in a SR-Lab system (San Diego Instruments). Response amplitude was calculated as the maximum response level occurred during the 100 ms recording. Because animals can habituate to the prepulse, and to the startle stimulus, the number of trials was kept to minimum. Immediately after being placed in the chamber, the animal was allowed to acclimate for 5 min which background noise (86 dB) continually present. The animal then received 10 sets of the following 5 types of trials, distributed pseudo-randomly, and separated by 15 sec inter-trial intervals: Trial 1: 40 ms, 120 dB noise burst alone; Trial 2-4: 120 dB startle stimuli preceded 100 ms by one of the three 20 ms prepulses: 90 dB, 94 dB or 98 dB; Trial 5: no-stimulus/background noise alone (86 dB). […] Data was analyzed using ANOVA with repeated measures."}
{"compound": "C[C@]12N[C@H](Cc3ccccc31)c1ccccc12", "note": "[MK-801]", "values": [{"measurement": "Prepulse inhibition (PPI) of the acoustic startle response", "value": "significant decrease in PPI"}]}
